Measurements as given in ChEMBL document CHEMBL5608182, “Synthesis and evaluation of neuroactive steroids with novel pharmacophore at C-21 let identify a compound with advantageous PK profile and higher EC50 and Emax as PAM on GABAA receptor” (Eur J Med Chem, 2024).

How the values were obtained:
[1] = target: Gamma-aminobutyric acid receptor subunit alpha-4/beta3/delta (Homo sapiens) (UniProt P28472+P48169+O14764); test: (§1) Positive allosteric modulation of extrasynaptic alpha4beta3delta GABA-A receptor (unknown origin) transfected in CHO cells assessed as potentiation of GABA-induced peak current amplitude by measuring maximal efficacy at 0.01 to 10 uM at -80 mV holding potential preincubated for 30 secs followed by GABA stimulation for 2 secs by manual patch assay relative to control; assay type: cell-based; conditions: filed as positive allosteric modulator, dose 0.01-10 µM, time 32.0 sec
[2] = Metabolic stability in Sprague-Dawley rat liver microsomes assessed as intrinsic clearance at 1 uM preincubated for 10 mins followed by NADPH addition by LC-MS analysis; assay type: ADME, Microsome; conditions: read-out: CLH
[3] = target: T1, GABA-A receptor; alpha-1/beta-2/gamma-2 (Homo sapiens, UniProt P14867+P18507+P47870); test: Positive allosteric modulation of synaptic alpha1beta2gamma2 GABA-A receptor (unknown origin) transfected in LTK cells assessed as potentiation of GABA-induced peak current amplitude at -80 mV holding potential preincubated for 30 secs followed by GABA stimulation for 2 secs by Q-patch assay; assay type: cell-based
T1 sequence (P14867 whole entry): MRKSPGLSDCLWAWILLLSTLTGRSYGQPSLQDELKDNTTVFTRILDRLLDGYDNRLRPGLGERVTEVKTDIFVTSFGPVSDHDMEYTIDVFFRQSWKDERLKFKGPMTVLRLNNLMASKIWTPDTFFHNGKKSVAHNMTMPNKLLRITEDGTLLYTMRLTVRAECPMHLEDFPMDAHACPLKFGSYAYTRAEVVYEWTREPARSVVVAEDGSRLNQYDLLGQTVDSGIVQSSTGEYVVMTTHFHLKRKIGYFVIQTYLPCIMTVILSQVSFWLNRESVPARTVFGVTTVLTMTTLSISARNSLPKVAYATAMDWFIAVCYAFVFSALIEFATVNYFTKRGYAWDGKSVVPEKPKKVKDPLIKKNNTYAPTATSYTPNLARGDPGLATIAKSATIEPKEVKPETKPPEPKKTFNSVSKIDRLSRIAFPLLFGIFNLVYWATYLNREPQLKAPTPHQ
T1 sequence (P47870 whole entry): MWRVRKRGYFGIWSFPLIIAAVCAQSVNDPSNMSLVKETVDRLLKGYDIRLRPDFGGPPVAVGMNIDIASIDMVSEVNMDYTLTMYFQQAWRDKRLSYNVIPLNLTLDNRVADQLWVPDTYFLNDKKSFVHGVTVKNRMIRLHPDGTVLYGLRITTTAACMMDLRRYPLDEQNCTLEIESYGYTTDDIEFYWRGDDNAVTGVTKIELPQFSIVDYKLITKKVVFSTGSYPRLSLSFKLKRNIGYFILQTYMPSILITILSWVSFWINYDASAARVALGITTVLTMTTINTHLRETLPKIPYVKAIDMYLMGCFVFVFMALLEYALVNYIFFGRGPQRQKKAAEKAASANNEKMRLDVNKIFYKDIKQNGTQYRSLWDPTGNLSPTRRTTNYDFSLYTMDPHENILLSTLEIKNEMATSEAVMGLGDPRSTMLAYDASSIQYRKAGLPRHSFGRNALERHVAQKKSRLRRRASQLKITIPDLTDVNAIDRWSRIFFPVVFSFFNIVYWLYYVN
T1 sequence (P18507 whole entry): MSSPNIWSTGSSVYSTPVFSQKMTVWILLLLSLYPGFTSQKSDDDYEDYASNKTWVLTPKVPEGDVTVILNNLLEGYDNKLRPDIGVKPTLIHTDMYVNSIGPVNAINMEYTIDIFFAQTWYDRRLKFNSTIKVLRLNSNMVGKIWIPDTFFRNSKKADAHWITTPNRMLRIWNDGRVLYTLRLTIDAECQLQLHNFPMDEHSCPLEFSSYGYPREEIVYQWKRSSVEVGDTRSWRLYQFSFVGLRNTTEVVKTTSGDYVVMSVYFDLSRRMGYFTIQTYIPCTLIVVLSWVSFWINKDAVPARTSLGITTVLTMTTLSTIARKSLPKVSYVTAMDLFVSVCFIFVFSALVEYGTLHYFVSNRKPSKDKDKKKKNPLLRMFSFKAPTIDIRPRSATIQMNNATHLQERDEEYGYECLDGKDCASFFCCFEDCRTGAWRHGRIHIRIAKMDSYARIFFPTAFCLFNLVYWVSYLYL

[4] = Metabolic stability in human liver microsomes assessed as intrinsic clearance at 1 uM preincubated for 10 mins followed by NADPH addition by LC-MS analysis; assay type: ADME, Microsome; conditions: read-out: CLH
[5] = target: GABA-A receptor; alpha-1/beta-2/gamma-2 (Homo sapiens) (UniProt P14867+P47870+P18507); test: as §1, with “synaptic alpha1beta2gamma2” for “extrasynaptic alpha4beta3delta”, “LTK” for “CHO”, “Q-patch” for “manual patch”; assay type: cell-based; conditions: filed as positive allosteric modulator, dose 0.01-10 µM, time 32.0 sec
[6] = Metabolic stability in human liver microsomes assessed as compound remaining at 1 uM preincubated for 10 mins followed by NADPH addition by LC-MS analysis; assay type: ADME, Microsome; conditions: read-out: Stability
[7] = target: Gamma-aminobutyric acid receptor subunit alpha-4/beta3/delta (Homo sapiens, UniProt O14764+P28472+P48169); test: as §1, with “amplitude” for “amplitude by measuring maximal efficacy at 0.01 to 10 uM”, “assay” for “assay relative to control”; assay type: cell-based
[8] = Metabolic stability in Sprague-Dawley rat liver microsomes assessed as compound remaining at 1 uM preincubated for 10 mins followed by NADPH addition by LC-MS analysis; assay type: ADME, Microsome; conditions: read-out: Stability
[9] = target: GABA-A receptor; anion channel; test: Inhibition of [35S]TBPS binding to GABA-A receptor in Sprague-Dawley rat brain cortical membrane incubated for 90 mins by liquid scintillation spectrometry; assay type: cell membranes, Cortex

Chain of Gamma-aminobutyric acid receptor subunit alpha-4/beta3/delta (P28472 whole entry): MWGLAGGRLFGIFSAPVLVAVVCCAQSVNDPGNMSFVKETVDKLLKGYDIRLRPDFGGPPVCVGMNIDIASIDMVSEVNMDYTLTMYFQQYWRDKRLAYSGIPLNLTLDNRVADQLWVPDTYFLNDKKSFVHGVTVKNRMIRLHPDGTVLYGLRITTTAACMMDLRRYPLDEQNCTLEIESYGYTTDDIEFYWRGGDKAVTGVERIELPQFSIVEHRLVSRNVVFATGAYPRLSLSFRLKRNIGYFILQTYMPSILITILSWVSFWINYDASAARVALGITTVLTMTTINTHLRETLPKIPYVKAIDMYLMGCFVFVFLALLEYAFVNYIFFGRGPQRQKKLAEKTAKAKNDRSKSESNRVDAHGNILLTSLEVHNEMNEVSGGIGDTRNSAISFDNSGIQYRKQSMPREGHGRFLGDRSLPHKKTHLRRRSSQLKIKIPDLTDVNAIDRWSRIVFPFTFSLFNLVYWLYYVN
Chain of Gamma-aminobutyric acid receptor subunit alpha-4/beta3/delta (P48169 whole entry): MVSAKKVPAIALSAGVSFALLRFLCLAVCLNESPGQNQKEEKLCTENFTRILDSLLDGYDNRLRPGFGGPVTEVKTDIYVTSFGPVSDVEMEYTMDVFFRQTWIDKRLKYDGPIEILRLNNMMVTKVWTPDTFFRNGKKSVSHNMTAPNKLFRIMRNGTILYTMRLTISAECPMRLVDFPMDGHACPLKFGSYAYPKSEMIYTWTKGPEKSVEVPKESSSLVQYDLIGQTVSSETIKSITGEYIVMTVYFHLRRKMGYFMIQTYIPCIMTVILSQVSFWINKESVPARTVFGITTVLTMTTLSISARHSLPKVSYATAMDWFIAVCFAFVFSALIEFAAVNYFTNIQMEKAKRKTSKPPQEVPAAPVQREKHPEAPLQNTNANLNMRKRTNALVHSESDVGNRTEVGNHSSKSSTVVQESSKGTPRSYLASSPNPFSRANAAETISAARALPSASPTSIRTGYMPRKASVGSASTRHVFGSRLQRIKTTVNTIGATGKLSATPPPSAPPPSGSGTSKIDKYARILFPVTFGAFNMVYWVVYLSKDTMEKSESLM
Chain of Gamma-aminobutyric acid receptor subunit alpha-4/beta3/delta (O14764 whole entry): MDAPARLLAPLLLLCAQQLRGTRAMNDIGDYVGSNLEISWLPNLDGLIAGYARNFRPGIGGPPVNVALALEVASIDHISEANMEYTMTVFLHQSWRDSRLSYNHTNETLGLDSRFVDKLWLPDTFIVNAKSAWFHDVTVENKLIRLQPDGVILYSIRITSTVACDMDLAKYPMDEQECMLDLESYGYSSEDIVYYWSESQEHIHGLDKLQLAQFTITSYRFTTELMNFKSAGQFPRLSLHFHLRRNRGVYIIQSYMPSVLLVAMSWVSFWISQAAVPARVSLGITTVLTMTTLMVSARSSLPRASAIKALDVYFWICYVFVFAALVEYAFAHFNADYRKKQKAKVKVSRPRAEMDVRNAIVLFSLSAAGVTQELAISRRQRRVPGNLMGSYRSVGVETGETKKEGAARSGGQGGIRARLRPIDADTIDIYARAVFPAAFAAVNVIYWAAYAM

Row | Compound | Emax [1] | CLint scaled at 1 µM [2] | EC50 [3] | CLint scaled at 1 µM [4] | Emax [5] | remaining at 1 µM [6] | EC50 [7] | remaining at 1 µM [8] | IC50 [9]
1 | C[C@@]1(O)CC[C@H]2[C@H](CC[C@@H]3[C@@H]2CC[C@]2(C)[C@@H](C(=O)Cn4cnn(CC5CC5)c4=O)CC[C@@H]32)C1 | 931% | 280 mL/min/kg | 163 nM | 38 mL/min/kg | 727% | 26.4% | 122 nM | 5.9% | 
2 | C[C@@]1(O)CC[C@H]2[C@H](CC[C@@H]3[C@@H]2CC[C@]2(C)[C@@H](C(=O)Cn4cnn(-c5ccc6c(c5)OCO6)c4=O)CC[C@@H]32)C1 | 1200% |  | 139 nM |  | 387% |  | 266 nM |  | 
3 | C[C@@]1(O)CC[C@H]2[C@H](CC[C@@H]3[C@@H]2CC[C@]2(C)[C@@H](C(=O)Cn4cnn(-c5cccc(N)c5)c4=O)CC[C@@H]32)C1 | 1070% |  | 349 nM |  | 786% |  | 213 nM |  | 
4 | CC(C)(C)n1ncn(CC(=O)[C@H]2CC[C@H]3[C@@H]4CC[C@@H]5C[C@](C)(O)CC[C@@H]5[C@H]4CC[C@]23C)c1=O | 749% |  | 310 nM |  | 806% |  | 268 nM |  | 
5 | C[C@@]1(O)CC[C@H]2[C@H](CC[C@@H]3[C@@H]2CC[C@]2(C)[C@@H](C(=O)Cn4cnn(-c5cc(F)ccn5)c4=O)CC[C@@H]32)C1 | 720% |  | 340 nM |  | 446% |  | 68 nM |  | 
6 | C[C@@]1(O)CC[C@H]2[C@H](CC[C@@H]3[C@@H]2CC[C@]2(C)[C@@H](C(=O)Cn4cnn(-c5ccccc5F)c4=O)CC[C@@H]32)C1 | 541% |  | 171 nM |  | 710% |  | 107 nM |  | 
7 | C[C@@]1(O)CC[C@H]2[C@H](CC[C@@H]3[C@@H]2CC[C@]2(C)[C@@H](C(=O)Cn4cnn(CC(F)(F)F)c4=O)CC[C@@H]32)C1 | 1280% |  | 548 nM |  | 378% |  | 1240 nM |  | 
8 | COc1cccc(-n2ncn(CC(=O)[C@H]3CC[C@H]4[C@@H]5CC[C@@H]6C[C@](C)(O)CC[C@@H]6[C@H]5CC[C@]34C)c2=O)c1 | 570% | 176 mL/min/kg | 26 nM | 24 mL/min/kg | 410% | 43.5% | 21 nM | 14.2% | 
9 | C[C@@]1(O)CC[C@H]2[C@H](CC[C@@H]3[C@@H]2CC[C@]2(C)[C@@H](C(=O)Cn4cnn(-c5cccc(F)n5)c4=O)CC[C@@H]32)C1 | 966% |  | 368 nM |  | 724% |  | 360 nM |  | 
10 | C[C@@]1(O)CC[C@H]2[C@H](CC[C@@H]3[C@@H]2CC[C@]2(C)[C@@H](C(=O)Cn4cnn(-c5cncc(F)c5)c4=O)CC[C@@H]32)C1 | 601% |  | 145 nM |  | 618% |  | 150 nM |  | 
11 | C[C@@]1(O)CC[C@H]2[C@H](CC[C@@H]3[C@@H]2CC[C@]2(C)[C@@H](C(=O)Cn4cnn(-c5ccccc5)c4=O)CC[C@@H]32)C1 | 430% |  | 90 nM |  | 430% |  | 29 nM |  | 
12 | C[C@@]1(O)CC[C@H]2[C@H](CC[C@@H]3[C@@H]2CC[C@]2(C)[C@@H](C(=O)Cn4cnn(C5CCCCC5)c4=O)CC[C@@H]32)C1 | 685% |  | 585 nM |  | 873% |  | 237 nM |  | 
13 | C[C@@]1(O)CC[C@H]2[C@H](CC[C@@H]3[C@@H]2CC[C@]2(C)[C@@H](C(=O)Cn4cnn(-c5nccs5)c4=O)CC[C@@H]32)C1 | 633% |  | 330 nM |  | 763% |  | 126 nM |  | 
14 | C[C@@]1(O)CC[C@H]2[C@H](CC[C@@H]3[C@@H]2CC[C@]2(C)[C@@H](C(=O)Cn4cnn(C5CCCC5)c4=O)CC[C@@H]32)C1 | 830% |  | 192 nM |  | 691% |  | 203 nM |  | 
15 | CCn1ncn(CC(=O)[C@H]2CC[C@H]3[C@@H]4CC[C@@H]5C[C@](C)(O)CC[C@@H]5[C@H]4CC[C@]23C)c1=O | 526% |  | 190 nM |  | 632% |  | 270 nM |  | 
16 | Cn1ncn(CC(=O)[C@H]2CC[C@H]3[C@@H]4CC[C@@H]5C[C@](C)(O)CC[C@@H]5[C@H]4CC[C@]23C)c1=O | 497% |  | 444 nM |  | 242% |  | 305 nM |  | 
17 | C[C@@]1(O)CC[C@H]2[C@H](CC[C@@H]3[C@@H]2CC[C@]2(C)[C@@H](C(=O)Cn4ncn(-c5cccc(F)c5)c4=O)CC[C@@H]32)C1 | 334% |  | 371 nM |  | 1260% |  | 112 nM |  | 1 nM
18 | C[C@@]1(O)CC[C@H]2[C@H](CC[C@@H]3[C@@H]2CC[C@]2(C)[C@@H](C(=O)Cn4cnn(-c5cccc(C#N)c5)c4=O)CC[C@@H]32)C1 | 683% |  | 112 nM |  | 1050% |  | 50 nM |  | 
19 | C[C@@]1(O)CC[C@H]2[C@H](CC[C@@H]3[C@@H]2CC[C@]2(C)[C@@H](C(=O)Cn4cnn(-c5cc(F)cc(F)c5)c4=O)CC[C@@H]32)C1 | 441% |  | 154 nM |  | 1040% |  | 35 nM |  | 
20 | C[C@@]1(O)CC[C@H]2[C@H](CC[C@@H]3[C@@H]2CC[C@]2(C)[C@@H](C(=O)Cn4cnn(-c5cccc(F)c5F)c4=O)CC[C@@H]32)C1 | 526% |  | 126 nM |  | 445% |  | 42 nM |  | 
21 | C[C@@]1(O)CC[C@H]2[C@H](CC[C@@H]3[C@@H]2CC[C@]2(C)[C@@H](C(=O)Cn4cnn(-c5ccc(F)cc5)c4=O)CC[C@@H]32)C1 | 410% |  | 220 nM |  | 390% |  | 170 nM |  | 
22 | C[C@@]1(O)CC[C@H]2[C@H](CC[C@@H]3[C@@H]2CC[C@]2(C)[C@@H](C(=O)Cn4ccn(-c5cccc(F)c5)c4=O)CC[C@@H]32)C1 | 552% |  | 241 nM |  | 594% |  | 139 nM |  | 1 nM
23 | C[C@@]1(O)CC[C@H]2[C@H](CC[C@@H]3[C@@H]2CC[C@]2(C)[C@@H](C(=O)Cn4cnn(-c5cccc(OC(F)(F)F)c5)c4=O)CC[C@@H]32)C1 | 1580% |  | 182 nM |  | 629% |  | 41 nM |  | 
24 | C[C@@]1(O)CC[C@H]2[C@H](CC[C@@H]3[C@@H]2CC[C@]2(C)[C@@H](C(=O)Cn4cnn(-c5cc(F)ccc5F)c4=O)CC[C@@H]32)C1 | 743% |  | 340 nM |  | 347% |  | 79 nM |  | 
25 | C[C@@]1(O)CC[C@H]2[C@H](CC[C@@H]3[C@@H]2CC[C@]2(C)[C@@H](C(=O)Cn4cnn(-c5ccc(F)cc5F)c4=O)CC[C@@H]32)C1 | 542% |  | 784 nM |  | 692% |  | 89 nM |  | 
